Results: patent US20140322278A1, “Modulation of Tissue Transglutaminase Activation in Disease” (The Board of Trustees of the Leland Stanford Junior …, priority 2011, published 2014)
“Also recorded” adds a separate entry of the source.

What was measured:
human thioredoxin = biological target: T1, human thioredoxin (Homo sapiens, UniProt P10599); assay: Inhibition of human thioredoxin by disulfide analogs of PX-12 (kinh/Ki); type: biochemical; conditions: for Trx kinh/Ki: human thioredoxin, bimolecular parameter estimating potency; for Trx/DTT: ratio of reactivity towards Trx relative to DTT (selectivity)
T1 construct: made in house; host or cells: E. coli
T1 sequence (P10599 1-105): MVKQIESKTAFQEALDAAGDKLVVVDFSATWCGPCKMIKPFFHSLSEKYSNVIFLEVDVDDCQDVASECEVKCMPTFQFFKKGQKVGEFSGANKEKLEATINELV

[1] = Reactivity of disulfide inhibitors towards dithiothreitol
human TG2 = biological target: T2, human TG2 (Homo sapiens, UniProt P21980); assay: TG2 inhibition kinetics (kinh/Ki); type: biochemical
T2 sequence (P21980 1-687): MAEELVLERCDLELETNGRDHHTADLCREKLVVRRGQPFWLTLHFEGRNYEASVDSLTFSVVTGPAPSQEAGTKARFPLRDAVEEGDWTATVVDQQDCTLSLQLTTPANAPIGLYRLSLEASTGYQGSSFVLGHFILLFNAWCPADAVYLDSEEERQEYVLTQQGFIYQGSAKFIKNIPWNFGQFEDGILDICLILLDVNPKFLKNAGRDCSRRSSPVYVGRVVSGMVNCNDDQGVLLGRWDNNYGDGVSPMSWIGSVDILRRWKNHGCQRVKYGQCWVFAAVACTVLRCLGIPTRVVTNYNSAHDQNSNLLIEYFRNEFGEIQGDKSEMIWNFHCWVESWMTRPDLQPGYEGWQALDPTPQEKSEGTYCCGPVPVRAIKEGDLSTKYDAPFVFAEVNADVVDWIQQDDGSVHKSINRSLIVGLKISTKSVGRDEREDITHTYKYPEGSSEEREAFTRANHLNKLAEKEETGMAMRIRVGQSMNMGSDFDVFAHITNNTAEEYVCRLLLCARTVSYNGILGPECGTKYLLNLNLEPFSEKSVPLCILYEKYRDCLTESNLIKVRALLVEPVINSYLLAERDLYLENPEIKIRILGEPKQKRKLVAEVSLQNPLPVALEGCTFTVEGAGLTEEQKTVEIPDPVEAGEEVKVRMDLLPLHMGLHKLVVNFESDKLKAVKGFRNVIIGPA

[2] = biological target: T3, human transglutaminase 1 (TG1) (Homo sapiens, UniProt P22735); assay: TG1 inhibition kinetics (kinh/Ki); type: biochemical
T3 sequence (P22735 1-817): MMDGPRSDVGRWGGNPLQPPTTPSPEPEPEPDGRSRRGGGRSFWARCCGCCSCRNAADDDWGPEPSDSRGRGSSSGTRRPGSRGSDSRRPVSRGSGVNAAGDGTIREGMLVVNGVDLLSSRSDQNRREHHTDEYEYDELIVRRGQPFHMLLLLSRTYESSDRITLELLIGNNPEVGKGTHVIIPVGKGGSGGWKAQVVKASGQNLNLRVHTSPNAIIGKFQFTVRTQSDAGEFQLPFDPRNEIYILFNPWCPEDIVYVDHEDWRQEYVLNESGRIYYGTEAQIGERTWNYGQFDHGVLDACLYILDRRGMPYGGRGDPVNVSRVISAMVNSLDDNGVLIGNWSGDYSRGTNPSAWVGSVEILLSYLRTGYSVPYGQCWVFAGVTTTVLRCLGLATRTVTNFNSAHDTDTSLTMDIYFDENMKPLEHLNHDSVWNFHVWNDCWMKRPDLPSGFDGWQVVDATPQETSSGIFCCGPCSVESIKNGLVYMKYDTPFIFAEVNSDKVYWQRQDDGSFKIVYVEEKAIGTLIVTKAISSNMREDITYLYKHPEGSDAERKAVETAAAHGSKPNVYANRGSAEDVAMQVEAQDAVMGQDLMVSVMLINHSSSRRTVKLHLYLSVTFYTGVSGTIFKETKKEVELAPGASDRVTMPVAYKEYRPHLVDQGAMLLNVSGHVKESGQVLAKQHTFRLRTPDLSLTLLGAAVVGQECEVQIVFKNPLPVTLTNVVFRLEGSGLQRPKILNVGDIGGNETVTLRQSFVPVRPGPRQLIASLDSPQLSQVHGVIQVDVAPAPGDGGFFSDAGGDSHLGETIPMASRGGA

[3] = test system: TG2 activation in T84 monolayers; assay: IFN-γ induced TG2 activation in T84 monolayers, 5BP incorporation ELISA; type: cell-based, human; conditions: IFN-γ up to 1000 U/mL, 25 μM ERW1041E
Experimental: FIG. 2. Dose and time dependence of TG2 activation in response to IFN-γ treatments of T84 monolayers measured in a quantitative enzyme linked immunosorbent type assay. T84 monolayers were treated for 1 to 72 hrs at 0-1000 U/mL IFN-γ with or without TG2 inhibition using 25 μM ERW1041E. TG2 activation was quantified by the amount of 5BP crosslinked to native proteins in the T84 cells as measured by tetramethylbenzidine turnover via streptavidin-HRP labeling. 5BP incorporation is dependent on IFN-γ exposure concentration. […] Data reported as mean+/−standard deviation.
FIG. 3. […] (B) Dose and time dependence of TG2 activation in response to IFN-γ treatments of T84 monolayers measured in a quantitative enzyme linked immunosorbent type assay. […] TG2 activation was quantified by the amount of 5BP crosslinked to native proteins in the T84 cells as measured by tetramethylbenzidine turnover via streptavidin-HRP labeling. […]
In addition to increasing the paracellular permeability of antigenic gluten peptides, we sought to determine if IFN-γ could activate TG2 in the extracellular matrix of mature T84 monolayers. […] To quantify the extent to which IFN-γ activates TG2 in the T84 model system, an enzyme linked immunosorbent assay (ELISA) was developed, using streptavidin conjugated to horseradish peroxidase. […]

[4] = test system: TG2 activation in WI-38 monolayers; assay: Thioredoxin-induced TG2 activation in WI-38 monolayers, 5BP incorporation ELISA; type: cell-based, human; conditions: thioredoxin 0-10 μM, 3 hrs, 25 μM ERW1041E
Experimental: (§1) FIG. 7. Dose dependence of TG2 activation in response to recombinant human thioredoxin treatments of T84 and WI-38 monolayers measured in a quantitative enzyme linked immunosorbent type assay. Cellular monolayers were treated for 3 hrs at 0-10 μM thioredoxin with or without TG2 inhibition using 25 μM ERW1041E or with or without using 0-50 μM thioredoxin inhibitor PX-12. TG2 activation was quantified by the amount of 5BP crosslinked to native proteins in the extracellular matrix of cultured monolayers as measured by tetramethylbenzidine turnover via streptavidin-HRP labeling. (A) and (B) Illustrate the dependence of 5BP incorporation on thioredoxin exposure concentration in T84 and WI-38 cells, respectively. […] (C) and (D) Illustrate the dependence of 5BP incorporation on the ability of thioredoxin to activate TG2. TG2 activation was highest for control experiments with 0 μM PX-12. The amount of PX-12 required to reduce the 5BP incorporation in half at saturating concentrations of 3 μM thioredoxin in T84 and WI-38 cultures was 11 μM and 5 μM PX-12, respectively. […] Data reported as mean+/−standard deviation.
(§2) To test whether recombinant human thioredoxin could directly activate TG2 in cell culture, we used T84 and WI-38 monolayers in similar assays as described herein. T84 and WI-38 cells were grown into mature monolayers at which point varying amounts of pre-reduced thioredoxin were added to the culture medium along with 5BP and/or small molecule inhibitors, such as the TG2 inhibitor, ERW1041E, or the thioredoxin inhibitor, PX-12. 5BP incorporated into the extracellular matrix of cultured monolayers via activated TG2 was then quantified.

[5] = test system: TG2 activation in T84 monolayers; assay: Thioredoxin-induced TG2 activation in T84 monolayers, 5BP incorporation ELISA; type: cell-based, human; conditions: thioredoxin 0-10 μM, 3 hrs, 25 μM ERW1041E
Experimental: as §1, §2

Trx kinh/Ki (human thioredoxin)	Trx/DTT (human thioredoxin)	kinh/Ki TG2 (human TG2)	SMILES	DTT k [1]	other results
4000 M⁻¹ s⁻¹	74	–	c1ccc2[nH]c(SSC3CCCC3)nc2c1 [compound 5]	53.3 M⁻¹ s⁻¹	–
14500 M⁻¹ s⁻¹	362	–	CCC(C)SSc1nc2cc([N+](=O)[O-])ccc2[nH]1 (stereo not shown) [compound 9]	40 M⁻¹ s⁻¹	–
–	–	–	CCSSc1nc2ccccc2[nH]1 [compound 4]	900 M⁻¹ s⁻¹	–
inactive	–	–	CCC(C)SSc1ccccn1 (stereo not shown) [compound 13]	0.617 M⁻¹ s⁻¹	–
–	–	346.67 M⁻¹ s⁻¹	O=C(NC[C@@H]1CC(Br)=NO1)[C@@H]1Cc2c([nH]c3ccccc23)CN1C(=O)OCc1cnc2ccccc2c1 [compound 25]	–	–
–	–	142 M⁻¹ s⁻¹	C#CCO[C@@H]1C[C@@H](C(=O)NC[C@@H]2CC(Br)=NO2)N(C(=O)OCc2cnc3ccccc3c2)C1 [compound 23]	–	kinh/Ki TG1 [2]: 72.33 M⁻¹ s⁻¹
6330 M⁻¹ s⁻¹	83	–	c1ccc2[nH]c(SSC3CCCCC3)nc2c1 [compound 7]	76.7 M⁻¹ s⁻¹	–
–	–	283.15 M⁻¹ s⁻¹	O=C(NC[C@@H]1CC(Br)=NO1)[C@@H]1CCCN1C(=O)OCc1cnc2ccccc2c1 [compound 2]	–	kinh/Ki TG1 [2]: 220.37 M⁻¹ s⁻¹; TG2 activation (5BP incorporation) [3]: completely blocked 5BP incorporation; also recorded: reduced to basal levels; TG2 activation (5BP incorporation) in response to thioredoxin [4]: completely negates; also recorded: reduced to basal levels; TG2 activation (5BP incorporation) in response to thioredoxin [5]: completely negates; also recorded: reduced to basal levels
5830 M⁻¹ s⁻¹	175	–	CCC(C)SSc1nc2cc([N+](=O)[O-])ccc2s1 (stereo not shown) [compound 16]	33.3 M⁻¹ s⁻¹	–
3170 M⁻¹ s⁻¹	85	–	CCC(C)SSc1nc2ccncc2[nH]1 (stereo not shown) [compound 10]	36.7 M⁻¹ s⁻¹	–
3170 M⁻¹ s⁻¹	39	–	CCC(C)SSc1nc2ccccc2[nH]1 (stereo not shown) [compound 3]	80 M⁻¹ s⁻¹	–
–	–	120.8 M⁻¹ s⁻¹	O=C(NC[C@@H]1CC(Br)=NO1)[C@@H]1C[C@@H](F)CN1C(=O)OCc1cnc2ccccc2c1 [compound 18]	–	kinh/Ki TG1 [2]: 111.6 M⁻¹ s⁻¹
–	–	138.3 M⁻¹ s⁻¹	O=C(NC[C@@H]1CC(Br)=NO1)[C@@H]1CCCCN1C(=O)OCc1cnc2ccccc2c1 [compound 26]	–	kinh/Ki TG1 [2]: 384.87 M⁻¹ s⁻¹
–	–	208.52 M⁻¹ s⁻¹	O=C(NC[C@@H]1CC(Br)=NO1)[C@@H]1C[C@@H](O)CN1C(=O)OCc1cnc2ccccc2c1 [compound 20]	–	kinh/Ki TG1 [2]: 73.12 M⁻¹ s⁻¹
–	–	128.5 M⁻¹ s⁻¹	O=C(NC[C@@H]1CC(Br)=NO1)[C@@H]1C[C@@H](OCc2ccccc2)CN1C(=O)OCc1cnc2ccccc2c1 [compound 22]	–	–
40000 M⁻¹ s⁻¹	392	–	CCC(C)SSc1nc2ccccc2o1 (stereo not shown) [compound 12]	102 M⁻¹ s⁻¹	–
833 M⁻¹ s⁻¹	68	–	CCC(C)SSc1nccs1 (stereo not shown) [compound 14]	12.3 M⁻¹ s⁻¹	–
5500 M⁻¹ s⁻¹	72	–	CC(C)SSc1nc2ccccc2[nH]1 [compound 8]	76.7 M⁻¹ s⁻¹	–
–	–	–	CC(C)(C)SSc1nc2ccccc2[nH]1 [compound 6]	~0.467 M⁻¹ s⁻¹	–
250 M⁻¹ s⁻¹	88	–	CCC(C)SSc1nc2cc(Cl)ccc2s1 (stereo not shown) [compound 15]	2.83 M⁻¹ s⁻¹	–
–	–	223.93 M⁻¹ s⁻¹	O=C(NC[C@@H]1CC(Br)=NO1)[C@@H]1C[C@H](F)CN1C(=O)OCc1cnc2ccccc2c1 [compound 19]	–	kinh/Ki TG1 [2]: 100.7 M⁻¹ s⁻¹
–	–	130 M⁻¹ s⁻¹	O=C(NC[C@@H]1CC(Br)=NO1)[C@@H]1Cc2ccccc2CN1C(=O)OCc1cnc2ccccc2c1 [compound 24]	–	–
817 M⁻¹ s⁻¹	82	–	CCC(C)SSc1nc2cccc(C)c2s1 (stereo not shown) [compound 17]	10 M⁻¹ s⁻¹	–
